Test results from US8901105B2, “Prodrug derivatives of (E)-N-methyl-N-((3-M ethylbenzofuran-2-yl)methyl)-3-(7-oxo-5,6,7,8-tetrahydro-1,8-naphthyridin-3-yl)acrylamide” (Affinium Pharmaceuticals, Inc., priority 2012, dated 2014).

Columns and labels:
Format in all cases: physicochemical
[1] = Solid-state stability (HPLC % area after storage); conditions: for Solid-state stability % Area: 4 weeks
Protocol: (§1) Various compounds disclosed herein have been placed on long-term solid-state stability protocol. The compounds were stored in glass vials closed with PTFE lined caps at 30° C./65% RH, 40° C./75% RH, 50° C. and 60° C. (ambient humidity). The results of the study after 4 weeks are shown in Table B1 and after 3 months in Table B2. Appearance and purity analysis were conducted using HPLC and XPRD. The HPLC analyses were conducted using standard equipment such as a Agilent HP1100 HPLC (Station ID: LZPES HPLC 04) with YMC-Pack ODS-AQ sub 3 μm, 150×4.6 mm

[2] = XRPD crystal form after storage; conditions: 4 weeks storage
Protocol: as §1, with “mm Samples were prepared for XRPD by sprinkling ˜20 mg onto a Si wafer zero background plate and pressing the material flat to ensure the surface is smooth and level. The samples were analyzed according the equipment parameters below.” for “mm”

[3] = Aqueous solubility of salts at 25° C.; conditions: for Comments (behaviour in solubility experiment): water, 25° C., disodium salt
[4] = Photostability of solid salts

Cc1c(CN(C)C(=O)/C=C/c2cnc3c(c2)CCC(=O)N3COP(=O)([O-])[O-])oc2ccccc12.[Na+].[Na+] [Compound 9]
Solid-state stability % Area ([1]; 30° C./65% RH): 96.3 % Area | Solid-state stability % Area ([1]; 40° C./75% RH): 84.4 % Area | Solid-state stability % Area ([1]; 50° C./ambient humidity): 86.8 % Area | Solid-state stability % Area ([1]; 60° C./ambient humidity): 85.9 % Area | Solid-state stability % Area ([1]; Control (ambient lab conditions protected from light)): 96.4 % Area | chemical stability ([1]; over 1 month at 30° C./65% RH, closed vials, light protected): chemically stable | change in XRPD [2]: no change | solubility ([3]; aqueous buffer, pH 6.6, aqueous buffer, thermodynamic from solid, originally amorphous, crystallized within 7 days in aqueous buffer, pH 6.6-7.1, read-out: solubility after crystallization in aqueous buffer): < 5000 µg/mL | Comments (behaviour in solubility experiment) [3]: Forms gels | Comments (behaviour in solubility experiment) ([3]; listed as bis-sodium): formed unwieldy gels | Control % Area (Table C) ([4]; control sample at ambient lab conditions protected from light): 96.4 % Area | Photo-stability % Area ([4]; exposed to 60% of ICH minimum): 55.9 % Area
